Assay results from publication PMC5218480 (PLoS ONE, 2017).

System: MV-4-11 cells
Assay: Gene expression microarray analysis (Affymetrix PrimeView) and GSEA
Assay type: cell-based, human
Parameters: RFU PODN (11730768_x_at) / Fold change /veh PODN (11730768_x_at) / RFU LINC00158 (11744669_a_at) / Fold change /veh LINC00158 (11744669_a_at) / RFU DUSP10 (11751237_a_at) / Fold change /veh DUSP10 (11751237_a_at) / RFU ID3 (11757404_x_at) / Fold change /veh ID3 (11757404_x_at) / RFU PLEKHG5 (11737974_s_at) / Fold change /veh PLEKHG5 (11737974_s_at) / RFU LRRC4B (11730491_at) / Fold change /veh LRRC4B (11730491_at) / RFU GIMAP4 (11747438_a_at) / Fold change /veh GIMAP4 (11747438_a_at) / RFU KRT8 (11758183_x_at) / Fold change /veh KRT8 (11758183_x_at) / RFU CNN1 (11734310_a_at) / Fold change /veh CNN1 (11734310_a_at) / RFU VPS37D (11726825_at) / Fold change /veh VPS37D (11726825_at) / RFU C10orf10 (11716522_x_at) / Fold change /veh C10orf10 (11716522_x_at) / RFU KIR2DL2 /// KIR2DL4 /// KIR2DL5A /// KIR2DL5B /// KIR2DS1 /// KIR2DS2 /// KIR2DS3 /// KIR2DS4 /// KIR3DL3 /// KIR3DL3 /// KIR3DS1 (11738374_at) / Fold change /veh KIR2DL2 /// KIR2DL4 /// KIR2DL5A /// KIR2DL5B /// KIR2DS1 /// KIR2DS2 /// KIR2DS3 /// KIR2DS4 /// KIR3DL3 /// KIR3DL3 /// KIR3DS1 (11738374_at) / RFU C1QL1 (11718748_at) / Fold change /veh C1QL1 (11718748_at) / RFU TMPRSS4 (11747572_a_at) / Fold change /veh TMPRSS4 (11747572_a_at) / RFU HAMP (11756126_x_at) / Fold change /veh HAMP (11756126_x_at) / RFU RNFT2 (11725882_a_at) / Fold change /veh RNFT2 (11725882_a_at) / RFU NR4A2 (11747474_a_at) / Fold change /veh NR4A2 (11747474_a_at) / RFU ABCC12 (11746883_a_at) / Fold change /veh ABCC12 (11746883_a_at) / RFU TMEM136 (11760407_x_at) / Fold change /veh TMEM136 (11760407_x_at) / RFU CLDN22 /// WWC2 (11732394_at) / Fold change /veh CLDN22 /// WWC2 (11732394_at) / RFU HLA-DPB1 (11760878_x_at) / Fold change /veh HLA-DPB1 (11760878_x_at) / RFU SPINT1 (11716480_a_at) / Fold change /veh SPINT1 (11716480_a_at) / RFU GAP43 (11754022_s_at) / Fold change /veh GAP43 (11754022_s_at) / RFU A4GNT (11735810_at) / Fold change /veh A4GNT (11735810_at) / RFU PRB3 (11715151_x_at) / Fold change /veh PRB3 (11715151_x_at) / RFU TUBB4B (11761932_at) / Fold change /veh TUBB4B (11761932_at) / RFU CAPN14 (11732068_a_at) / Fold change /veh CAPN14 (11732068_a_at) / RFU TMCC2 (11721928_a_at) / Fold change /veh TMCC2 (11721928_a_at) / RFU IRGQ (11745062_a_at) / Fold change /veh IRGQ (11745062_a_at) / RFU FAM174B (11720279_a_at) / Fold change /veh FAM174B (11720279_a_at) / RFU TMPRSS4 (11748680_a_at) / Fold change /veh TMPRSS4 (11748680_a_at) / RFU FAM212B (11763350_a_at) / Fold change /veh FAM212B (11763350_a_at) / RFU PLEKHG5 (11743358_a_at) / Fold change /veh PLEKHG5 (11743358_a_at) / RFU ZSCAN30 (11745921_a_at) / Fold change /veh ZSCAN30 (11745921_a_at) / RFU CMKLR1 (11741424_a_at) / Fold change /veh CMKLR1 (11741424_a_at) / RFU LOC101060620 /// MAPK8IP1 (11723275_at) / Fold change /veh LOC101060620 /// MAPK8IP1 (11723275_at) / RFU SPTSSB (11747773_x_at) / Fold change /veh SPTSSB (11747773_x_at) / RFU PRSS12 (11739890_at) / Fold change /veh PRSS12 (11739890_at) / RFU BIN1 (11741810_x_at) / Fold change /veh BIN1 (11741810_x_at) / RFU WNT11 (11732464_a_at) / Fold change /veh WNT11 (11732464_a_at) / RFU C10orf10 (11716521_a_at) / Fold change /veh C10orf10 (11716521_a_at) / RFU C5orf56 (11738089_at) / Fold change /veh C5orf56 (11738089_at) / RFU CYB561 (11721691_x_at) / Fold change /veh CYB561 (11721691_x_at) / RFU ANKRD19P (11752326_a_at) / Fold change /veh ANKRD19P (11752326_a_at) / RFU OR2T12 /// OR2T33 /// OR2T8 (11738714_s_at) / Fold change /veh OR2T12 /// OR2T33 /// OR2T8 (11738714_s_at) / RFU VCAN (11748164_a_at) / Fold change /veh VCAN (11748164_a_at) / RFU JSRP1 (11732532_at) / Fold change /veh JSRP1 (11732532_at) / RFU KRTAP10-11 (11738290_x_at) / Fold change /veh KRTAP10-11 (11738290_x_at) / RFU MYO3A (11730013_a_at) / Fold change /veh MYO3A (11730013_a_at) / RFU EBF3 (11725865_a_at) / Fold change /veh EBF3 (11725865_a_at) / RFU CAMK2N1 (11719241_x_at) / Fold change /veh CAMK2N1 (11719241_x_at) / RFU C5orf56 (11738088_a_at) / Fold change /veh C5orf56 (11738088_a_at) / RFU OLFML3 (11715873_a_at) / Fold change /veh OLFML3 (11715873_a_at) / RFU LOC100653217 /// NTM (11731650_a_at) / Fold change /veh LOC100653217 /// NTM (11731650_a_at) / RFU MAPK11 (11762145_a_at) / Fold change /veh MAPK11 (11762145_a_at) / RFU FIZ1 (11724087_x_at) / Fold change /veh FIZ1 (11724087_x_at) / RFU OASL (11726364_x_at) / Fold change /veh OASL (11726364_x_at) / RFU SOX15 (11748057_x_at) / Fold change /veh SOX15 (11748057_x_at) / RFU CD79A (11719716_a_at) / Fold change /veh CD79A (11719716_a_at) / RFU HIST1H1D (11736915_at) / Fold change /veh HIST1H1D (11736915_at) / RFU CASKIN2 (11723855_a_at) / Fold change /veh CASKIN2 (11723855_a_at) / RFU LOC730098 (11760151_x_at) / Fold change /veh LOC730098 (11760151_x_at) / RFU OR4N2 (11742367_at) / Fold change /veh OR4N2 (11742367_at) / RFU PRRT2 (11749266_a_at) / Fold change /veh PRRT2 (11749266_a_at) / RFU SNX32 (11753110_a_at) / Fold change /veh SNX32 (11753110_a_at) / RFU CDHR5 (11726645_a_at) / Fold change /veh CDHR5 (11726645_a_at) / RFU RCAN1 (11760418_a_at) / Fold change /veh RCAN1 (11760418_a_at) / RFU FAM167A (11723789_a_at) / Fold change /veh FAM167A (11723789_a_at) / RFU FAM26E (11764081_at) / Fold change /veh FAM26E (11764081_at) / RFU ISYNA1 (11749810_s_at) / Fold change /veh ISYNA1 (11749810_s_at) / RFU ACY1 (11761880_at) / Fold change /veh ACY1 (11761880_at) / RFU 11764098_at / Fold change /veh 11764098_at / RFU SAMD14 (11745864_x_at) / Fold change /veh SAMD14 (11745864_x_at) / RFU NPB (11741838_a_at) / Fold change /veh NPB (11741838_a_at) / RFU TMPRSS6 (11731388_a_at) / Fold change /veh TMPRSS6 (11731388_a_at) / RFU KRTAP10-2 (11738614_at) / Fold change /veh KRTAP10-2 (11738614_at) / RFU ARHGAP8 /// PRR5-ARHGAP8 (11727945_x_at) / Fold change /veh ARHGAP8 /// PRR5-ARHGAP8 (11727945_x_at) / RFU KRTAP5-7 /// NADSYN1 (11734609_at) / Fold change /veh KRTAP5-7 /// NADSYN1 (11734609_at) / RFU RASL12 (11751679_a_at) / Fold change /veh RASL12 (11751679_a_at) / RFU CDKN2B (11736163_a_at) / Fold change /veh CDKN2B (11736163_a_at) / RFU PRF1 (11729649_at) / Fold change /veh PRF1 (11729649_at) / RFU, ZNF638 /// ZNF638-IT1 / Fold change vs veh, ZNF638 /// ZNF638-IT1 / RFU, PANK3 / Fold change vs veh, PANK3 / RFU, SH3YL1 / Fold change vs veh, SH3YL1 / RFU, ZEB2 / Fold change vs veh, ZEB2 / RFU, NRIP1 / Fold change vs veh, NRIP1 / RFU, PTTG1IP / Fold change vs veh, PTTG1IP / RFU, CAPN2 / Fold change vs veh, CAPN2 / RFU, MED14 / Fold change vs veh, MED14 / RFU, SNORA58 / Fold change vs veh, SNORA58 / RFU, C1orf63 / Fold change vs veh, C1orf63 / RFU, LRRFIP1 / Fold change vs veh, LRRFIP1 / RFU, NDUFAF7 / Fold change vs veh, NDUFAF7 / RFU, SLC12A2 / Fold change vs veh, SLC12A2 / RFU, IBTK / Fold change vs veh, IBTK / RFU, ESF1 / Fold change vs veh, ESF1 / Fold change vs veh, TMEM50B / RFU, TAOK1 / Fold change vs veh, TAOK1 / RFU, ACBD3 / Fold change vs veh, ACBD3 / RFU, TMA16 / Fold change vs veh, TMA16 / RFU, RWDD3 / Fold change vs veh, RWDD3 / RFU, BCAT1 / Fold change vs veh, BCAT1 / RFU, EDEM3 / Fold change vs veh, EDEM3 / RFU, TMEM33 / Fold change vs veh, TMEM33 / RFU, WDR75 / Fold change vs veh, WDR75 / RFU, AHCTF1 / Fold change vs veh, AHCTF1 / RFU, TFRC / Fold change vs veh, TFRC / RFU, ZDHHC17 / Fold change vs veh, ZDHHC17 / RFU, NOM1 / Fold change vs veh, NOM1 / RFU, ARL8B / Fold change vs veh, ARL8B / RFU, ZBTB11 / Fold change vs veh, ZBTB11 / RFU, TAMM41 / Fold change vs veh, TAMM41 / RFU, KIAA1704 /// LOC100996395 / Fold change vs veh, KIAA1704 /// LOC100996395 / RFU, ING1 / Fold change vs veh, ING1 / RFU, TRMT61B / Fold change vs veh, TRMT61B / RFU, FUBP3 / Fold change vs veh, FUBP3 / RFU, TP53 / Fold change vs veh, TP53 / RFU, TNKS2 / Fold change vs veh, TNKS2 / RFU, ZFP14 / Fold change vs veh, ZFP14 / RFU, ACTR2 / Fold change vs veh, ACTR2 / RFU, PPP3R1 / Fold change vs veh, PPP3R1 / RFU, PIK3R1 / Fold change vs veh, PIK3R1 / RFU, HNRNPA1 / Fold change vs veh, HNRNPA1 / RFU, RNF170 / Fold change vs veh, RNF170 / RFU, ZNF28 / Fold change vs veh, ZNF28 / RFU, RNGTT / Fold change vs veh, RNGTT / RFU, OGT / Fold change vs veh, OGT / RFU, BRD1 / Fold change vs veh, BRD1 / RFU, MARS / Fold change vs veh, MARS / RFU, ZNF655 / Fold change vs veh, ZNF655 / RFU, FAHD1 / Fold change vs veh, FAHD1 / RFU, BDP1 / Fold change vs veh, BDP1 / RFU, LRRCC1 / Fold change vs veh, LRRCC1 / RFU, ARID1A / Fold change vs veh, ARID1A / RFU, ZNF146 / Fold change vs veh, ZNF146 / RFU, ZNF330 / Fold change vs veh, ZNF330 / RFU, GPN3 / Fold change vs veh, GPN3 / RFU, C9orf123 / Fold change vs veh, C9orf123 / RFU, N4BP2L2 / Fold change vs veh, N4BP2L2 / RFU, ARFIP1 / Fold change vs veh, ARFIP1 / RFU, FAM179B / Fold change vs veh, FAM179B / RFU, BCL10 / Fold change vs veh, BCL10 / RFU, UHRF1BP1L / Fold change vs veh, UHRF1BP1L / RFU, BET1 / Fold change vs veh, BET1 / RFU, CNOT2 / Fold change vs veh, CNOT2 / RFU, ZNF268 / Fold change vs veh, ZNF268 / Fold change vs veh, ZNF507 / RFU, DGCR2 / Fold change vs veh, DGCR2 / RFU, WDSUB1 / Fold change vs veh, WDSUB1 / Fold change vs veh, HSP90B1 /// MIR3652 / RFU, ADSS / Fold change vs veh, ADSS / RFU, GK / Fold change vs veh, GK / RFU, ZNF148 / Fold change vs veh, ZNF148 / RFU, TAF9 / Fold change vs veh, TAF9 / RFU, SLC1A5 / Fold change vs veh, SLC1A5 / RFU, SLMO2 / Fold change vs veh, SLMO2 / RFU, ABCC4 / Fold change vs veh, ABCC4 / RFU, LOC101060439 /// RAP1B / Fold change vs veh, LOC101060439 /// RAP1B / RFU, RFX7 / Fold change vs veh, RFX7 / RFU, GTPBP10 / Fold change vs veh, GTPBP10 / RFU, CNEP1R1 / Fold change vs veh, CNEP1R1 / RFU, BIVM-ERCC5 /// ERCC5 / Fold change vs veh, BIVM-ERCC5 /// ERCC5 / RFU, ILF3 / Fold change vs veh, ILF3 / RFU 11762660_at / Fold change /veh 11762660_at / RFU VCAN (11757783_s_at) / Fold change /veh VCAN (11757783_s_at) / RFU DDX43 (11728927_at) / Fold change /veh DDX43 (11728927_at) / RFU KRT8 (11758188_x_at) / Fold change /veh KRT8 (11758188_x_at) / RFU NKD1 (11759106_at) / Fold change /veh NKD1 (11759106_at) / RFU SRD5A1 (11742802_a_at) / Fold change /veh SRD5A1 (11742802_a_at) / RFU TPSAB1 /// TPSB2 (11721975_s_at) / Fold change /veh TPSAB1 /// TPSB2 (11721975_s_at) / RFU GSTM3 (11746129_a_at) / Fold change /veh GSTM3 (11746129_a_at) / RFU IL23R (11737362_x_at) / Fold change /veh IL23R (11737362_x_at) / RFU TMEM51 (11727254_a_at) / Fold change /veh TMEM51 (11727254_a_at) / RFU PIWIL2 (11732686_x_at) / Fold change /veh PIWIL2 (11732686_x_at) / RFU ORM1 (11744905_x_at) / Fold change /veh ORM1 (11744905_x_at) / RFU CCDC152 (11743942_at) / Fold change /veh CCDC152 (11743942_at) / RFU ECM1 (11717891_a_at) / Fold change /veh ECM1 (11717891_a_at) / RFU IL23R (11748794_a_at) / Fold change /veh IL23R (11748794_a_at) / RFU TNFAIP8L3 (11732012_x_at) / Fold change /veh TNFAIP8L3 (11732012_x_at) / RFU MBOAT4 (11741988_at) / Fold change /veh MBOAT4 (11741988_at) / RFU 11764193_at / Fold change /veh 11764193_at / RFU TMEM53 (11763286_at) / Fold change /veh TMEM53 (11763286_at) / RFU MAGEB2 (11727129_at) / Fold change /veh MAGEB2 (11727129_at) / RFU TMEM200A (11744735_a_at) / Fold change /veh TMEM200A (11744735_a_at) / RFU CCDC152 (11751479_a_at) / Fold change /veh CCDC152 (11751479_a_at) / RFU FAM211A (11726209_a_at) / Fold change /veh FAM211A (11726209_a_at) / RFU RGS16 (11746705_a_at) / Fold change /veh RGS16 (11746705_a_at) / RFU VCAN (11755009_s_at) / Fold change /veh VCAN (11755009_s_at) / RFU RHOB (11743442_s_at) / Fold change /veh RHOB (11743442_s_at) / RFU RGS16 (11720943_a_at) / Fold change /veh RGS16 (11720943_a_at) / RFU RGS16 (11720944_at) / Fold change /veh RGS16 (11720944_at) / RFU, VPS4B / Fold change vs veh, VPS4B / RFU, CREB1 / Fold change vs veh, CREB1 / RFU, DNAJC13 / Fold change vs veh, DNAJC13 / RFU, GNAQ / Fold change vs veh, GNAQ / RFU, CDK5R1 / Fold change vs veh, CDK5R1 / RFU, ZRANB3 / Fold change vs veh, ZRANB3 / RFU, CUL4A / Fold change vs veh, CUL4A / RFU, CCNY / Fold change vs veh, CCNY / RFU, UFL1 / Fold change vs veh, UFL1 / RFU, COG3 / Fold change vs veh, COG3 / RFU, DIAPH2 / Fold change vs veh, DIAPH2 / RFU, SKA2 / Fold change vs veh, SKA2 / RFU, AFF3 / Fold change vs veh, AFF3 / RFU, LMF1 / Fold change vs veh, LMF1 / RFU, IPO11 / Fold change vs veh, IPO11 / RFU, DFFB / Fold change vs veh, DFFB / RFU, FOXP1 / Fold change vs veh, FOXP1 / RFU, CARD8 / Fold change vs veh, CARD8 / RFU, STRN3 / Fold change vs veh, STRN3 / RFU, ADK / Fold change vs veh, ADK / RFU, RASSF2 / Fold change vs veh, RASSF2 / RFU, WIPF1 / Fold change vs veh, WIPF1 / RFU, LARP1B / Fold change vs veh, LARP1B / RFU, RASA1 / Fold change vs veh, RASA1 / RFU, RB1 / Fold change vs veh, RB1 / RFU, PPFIA1 / Fold change vs veh, PPFIA1 / RFU, MAT2A / Fold change vs veh, MAT2A / RFU, CCT5 / Fold change vs veh, CCT5 / RFU, WDR92 / Fold change vs veh, WDR92 / RFU, CUX1 / Fold change vs veh, CUX1 / RFU, TTC7A / Fold change vs veh, TTC7A / RFU, TMEM135 / Fold change vs veh, TMEM135 / RFU, DEPTOR / Fold change vs veh, DEPTOR / RFU, CPM / Fold change vs veh, CPM / RFU, DNAJB6 / Fold change vs veh, DNAJB6 / RFU, CACNA2D3 / Fold change vs veh, CACNA2D3 / RFU, DTX4 / Fold change vs veh, DTX4 / RFU, TFCP2 / Fold change vs veh, TFCP2 / RFU, GMCL1 /// GMCL1P1 / Fold change vs veh, GMCL1 /// GMCL1P1 / RFU, AEBP2 / Fold change vs veh, AEBP2 / RFU, SNHG1 /// SNORD22 /// SNORD25 /// SNORD26 /// SNORD27 /// SNORD28 /// SNORD29 /// SNORD31 / Fold change vs veh, SNHG1 /// SNORD22 /// SNORD25 /// SNORD26 /// SNORD27 /// SNORD28 /// SNORD29 /// SNORD31 / Fold change (Aza/veh), C12orf56 (ProbeSet 11735607_a_at) / Fold change (ACY-1035/veh), C12orf56 (ProbeSet 11735607_a_at) / Fold change (Aza/veh), FGFR1OP (ProbeSet 11751329_s_at) / Fold change (ACY-1035/veh), FGFR1OP (ProbeSet 11751329_s_at) / Fold change (Aza/veh), VPS36 (ProbeSet 11739960_a_at) / Fold change (ACY-1035/veh), VPS36 (ProbeSet 11739960_a_at) / RFU SYPL1 (11715823_x_at) / Fold change /veh SYPL1 (11715823_x_at) / RFU IGFBP7 (11715501_s_at) / Fold change /veh IGFBP7 (11715501_s_at) / RFU REEP3 (11722064_at) / Fold change /veh REEP3 (11722064_at) / RFU IGLL1 (11728026_x_at) / Fold change /veh IGLL1 (11728026_x_at): dose or concentration left out as unconfirmed
Settings: MV-4-11 cells, 48 hours

Nc1ccc(-c2cccs2)cc1NC(=O)c1ccc2c(c1)cc(C1CC1)n2CCN1CCOCC1 [ACY-1035]
RFU EBF3 (11725865_a_at): 63.04 RFU
